Patent publication US20260008787A1, “FUSED RING KRAS INHIBITORS FOR TREATING DISEASE” (BLOSSOMHILL THERAPEUTICS, INC., priority 2022, published 2026)

How the values were obtained:
[1] = system: GP2D (KRAS G12D); test: Cell proliferation assay (CellTiter-Glo, 72 hours), GP2D; assay type: cell-based; details: GP2d, 72 h, 384-well, CellTiter-Glo 2.0
Description: (§1) Two thousand KRAS mutant cells per well were seeded in 384-well white plate and then treated with indicated compounds for 72 hours at 37° C. and 5% CO2. Cell proliferation was measured using CellTiter-Glo 2.0 luciferase-based ATP detection assay (Promega, Madison, WI) following the manufacturer's protocol. IC50 values were determined using Prism software (GraphPad Software, San Diego, CA).

[2] = system: SW620 (KRAS G12V); test: Cell proliferation assay (CellTiter-Glo, 72 hours), SW620; assay type: cell-based; details: Homo sapiens, SW-620, 72 h, 384-well, CellTiter-Glo 2.0
Description: as §1

[3] = system: AGS (G12D); test: Cell proliferation assay (CellTiter-Glo, 72 hours), AGS; assay type: cell-based; details: 72 h, 384-well, CellTiter-Glo 2.0
Description: as §1

[4] = molecular target: KRAS G12D (Homo sapiens, UniProt P01116, G12D); test: biochemical
Chain of KRAS G12D (P01116 1-188 isoform P01116-2 G12D): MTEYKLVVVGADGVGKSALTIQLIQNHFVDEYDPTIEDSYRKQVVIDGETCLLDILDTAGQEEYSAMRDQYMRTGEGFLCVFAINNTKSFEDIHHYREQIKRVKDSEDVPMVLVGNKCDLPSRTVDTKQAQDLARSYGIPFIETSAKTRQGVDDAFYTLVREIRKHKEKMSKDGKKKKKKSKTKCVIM

[5] = molecular target: KRAS G12V (Homo sapiens, UniProt P01116, G12V); test: biochemical
Chain of KRAS G12V (P01116 1-188 isoform P01116-2 G12V): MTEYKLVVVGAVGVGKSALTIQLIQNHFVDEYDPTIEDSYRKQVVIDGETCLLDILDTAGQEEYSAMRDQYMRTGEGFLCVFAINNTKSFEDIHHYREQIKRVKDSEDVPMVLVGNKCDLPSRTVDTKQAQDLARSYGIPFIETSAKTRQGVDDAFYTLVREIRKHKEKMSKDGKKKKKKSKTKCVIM

Structure (SMILES)	IC50 [1]	IC50 [2]	IC50 [3]	IC50 [4]	IC50 [5]
C#Cc1c(F)ccc2cc(O)cc(-c3nc4c5c(nc(OC[C@@]67CCCN6C[C@H](F)C7)nc5c3F)N3CC=CC[C@H]3CO4)c12 [Example 106, 5-ethynyl-6-fluoro-4-[(7S)-13-fluoro-16-[[(2R,8S)-2-fluoro-1,2,3,5,6,7-hexahydropyrrolizin-8-yl]methoxy]-9-oxa-2,11,15,17-tetrazatetracyclo [8.7.1.0^2,7.0^14,18]octadeca-1 (17),4,10 (18),11,13,15-hexaen-12-yl]naphthalen-2-ol]	0.0146 µM	0.0645 µM	0.0488 µM	0.00326 µM	0.00383 µM
C#Cc1c(F)ccc2cc(O)cc(-c3nc4c5c(nc(OC[C@@]67CCCN6C[C@H](F)C7)nc5c3F)N3CC(C#N)CCC3CO4)c12 (stereo partly drawn) [Example 109, 5-(8-ethynyl-7-fluoro-3-hydroxynaphthalen-1-yl)-4-fluoro-2-{[(2R,7aS)-2-fluorotetrahydro-1H-pyrrolizin-7a(5H)-yl]methoxy}-8,8a,9,10,11,12-hexahydro-7-oxa-1,3,6,12a-tetraazabenzo[4,5]cyclohepta[1,2,3-de]naphthalene-11-carbonitrile]	2 µM	> 3 µM	> 3 µM	0.0159 µM	0.027 µM
C#Cc1c(F)ccc2cc(O)cc(-c3nc4c5c(nc(OC[C@@]67CCCN6C[C@H](F)C7)nc5c3F)N3CC(C(N)=O)CCC3CO4)c12 (stereo partly drawn) [Example 110, 5-(8-ethynyl-7-fluoro-3-hydroxynaphthalen-1-yl)-4-fluoro-2-{[(2R,7aS)-2-fluorotetrahydro-1H-pyrrolizin-7a(5H)-yl]methoxy}-8,8a,9,10,11,12-hexahydro-7-oxa-1,3,6,12a-tetraazabenzo[4,5]cyclohepta[1,2,3-de]naphthalene-11-carboxamide]	> 3 µM	> 3 µM	> 3 µM	> 10 µM	> 10 µM
CC[C@H]1COc2nc(-c3cc(O)cc4ccc(F)c(Cl)c34)c(F)c3nc(OC[C@@]45CCCN4C[C@H](F)C5)nc(c23)N1C [Example 111, 5-chloro-4-[(9S)-9-ethyl-4-fluoro-2-{[(2R,7aS)-2-fluorotetrahydro-1H-pyrrolizin-7a(5H)-yl]methoxy}-10-methyl-9,10-dihydro-8H-7-oxa-1,3,6,10-tetraazacyclohepta[1,2,3-de]naphthalen-5-yl]-6-fluoronaphthalen-2-ol]	0.0597 µM	0.499 µM	0.361 µM	0.00128 µM	0.00141 µM
C#Cc1c(F)ccc2cc(O)cc(-c3nc4c5c(nc(OC[C@@]67CCCN6C[C@H](F)C7)nc5c3F)N3C[C@H](C#N)CC[C@H]3CO4)c12 [Example 118, (5aS,8R)-2-(8-ethynyl-7-fluoro-3-hydroxynaphthalen-1-yl)-1-fluoro-11-(((2R,7aS)-2-fluorotetrahydro-1H-pyrrolizin-7a(5H)-yl)methoxy)-5,5a,6,7,8,9-hexahydro-4-oxa-3,9a,10,12-tetraazabenzo[4,5]cyclohepta[1,2,3-de]naphthalene-8-carbonitrile]	> 3 µM	> 3 µM	> 3 µM	0.0525 µM	0.0589 µM
CCc1c(F)ccc2cc(O)cc(-c3nc4c5c(nc(OC[C@@]67CCCN6C[C@H](F)C7)nc5c3F)N3CCCC(O)C3CO4)c12 (stereo partly drawn) [Example 119, 5-(8-ethyl-7-fluoro-3-hydroxynaphthalen-1-yl)-4-fluoro-2-{[(2R,7aS)-2-fluorotetrahydro-1H-pyrrolizin-7a(5H)-yl]methoxy}-8,8a,9,10,11,12-hexahydro-7-oxa-1,3,6,12a-tetraazabenzo[4,5]cyclohepta[1,2,3-de]naphthalen-9-ol]	0.103 µM	0.307 µM	0.258 µM	0.00248 µM	0.00216 µM
C#Cc1c(F)ccc2cc(O)cc(-c3nc4c5c(nc(OC[C@@]67CCCN6C[C@H](F)C7)nc5c3F)N3CCCCC3CC4)c12 (stereo partly drawn) [Example 121, 5-ethynyl-6-fluoro-4-(4-fluoro-2-{[(2R,7aS)-2-fluorotetrahydro-1H-pyrrolizin-7a(5H)-yl]methoxy}-8,8a,9,10,11,12-hexahydro-7H-1,3,6,12a-tetraazabenzo[4,5]cyclohepta[1,2,3-de]naphthalen-5-yl)naphthalen-2-ol]	0.00367 µM	0.0166 µM	0.0215 µM	0.00174 µM	0.00199 µM
C#Cc1c(F)ccc2cc(O)cc(-c3nc4c5c(nc(OC[C@@]67CCCN6C[C@H](F)C7)nc5c3F)NCCC4)c12 [Example 122, 5-ethynyl-6-fluoro-4-(4-fluoro-2-{[(2R,7aS)-2-fluorotetrahydro-1H-pyrrolizin-7a(5H)-yl]methoxy}-7,8,9,10-tetrahydro-1,3,6,10-tetraazacyclohepta[1,2,3-de]naphthalen-5-yl)naphthalen-2-ol]	2.41 µM	4.9 µM	5.49 µM	0.0148 µM	0.0169 µM
C#Cc1c(F)ccc2cc(O)cc(-c3nc4c5c(nc(OC[C@@]67CCCN6C[C@H](F)C7)nc5c3F)N[C@@H](C3CCCO3)CO4)c12 (stereo partly drawn) [Example 126, 5-ethynyl-6-fluoro-4-((9R)-4-fluoro-2-(((2R,7aS)-2-fluorotetrahydro-1H-pyrrolizin-7a(5H)-yl)methoxy)-9-(tetrahydrofuran-2-yl)-9,10-dihydro-8H-7-oxa-1,3,6,10-tetraazacyclohepta[de]naphthalen-5-yl)naphthalen-2-ol]	> 3 µM	0.109 µM	> 3 µM	0.111 µM	0.0302 µM
C#Cc1c(F)ccc2cc(O)cc(-c3nc4c5c(nc(OC[C@@]67CCCN6C[C@H](F)C7)nc5c3F)N(CC)[C@@H](C)CO4)c12 [Example 127, 4-[(9S)-10-ethyl-4-fluoro-2-{[(2R,7aS)-2-fluorotetrahydro-1H-pyrrolizin-7a(5H)-yl]methoxy}-9-methyl-9,10-dihydro-8H-7-oxa-1,3,6,10-tetraazacyclohepta[1,2,3-de]naphthalen-5-yl]-5-ethynyl-6-fluoronaphthalen-2-ol]	0.00454 µM	0.00986 µM	0.0088 µM	0.00261 µM	0.0032 µM
C#Cc1c(F)ccc2cc(O)cc(-c3nc4c5c(nc(OC[C@@]67CCCN6C[C@H](F)C7)nc5c3F)N3CCC[C@@H](O)[C@H]3CO4)c12 [compound 25, (8aR,9R)-5-(8-ethynyl-7-fluoro-3-hydroxynaphthalen-1-yl)-4-fluoro-2-{[(2R,7aS)-2-fluorotetrahydro-1H-pyrrolizin-7a(5H)-yl]methoxy}-8,8a,9,10,11,12-hexahydro-7-oxa-1,3,6,12a-tetraazabenzo[4,5]cyclohepta[1,2,3-de]naphthalen-9-ol]	0.0764 µM	0.654 µM	0.166 µM	0.00203 µM	0.00216 µM
C#Cc1c(F)ccc2cc(O)cc(-c3nc4c5c(nc(OC[C@@]67CCCN6C[C@H](F)C7)nc5c3F)N3CCC[C@H](O)[C@@H]3CO4)c12 [compound 103, (8aS,9S)-5-(8-ethynyl-7-fluoro-3-hydroxynaphthalen-1-yl)-4-fluoro-2-{[(2R,7aS)-2-fluorotetrahydro-1H-pyrrolizin-7a(5H)-yl]methoxy}-8,8a,9,10,11,12-hexahydro-7-oxa-1,3,6,12a-tetraazabenzo[4,5]cyclohepta[1,2,3-de]naphthalen-9-ol]	0.58 µM	> 3 µM	0.924 µM	0.0224 µM	0.0159 µM
